How the values were obtained:
stomach = settings: i.v., 0.1 mmol of Gd/kg, 60 minutes after administration (image no. 2)
Procedure: (§1) A cell suspension of the Brown-Pearce tumor was injected in the liver in a test animal (rat, strain lew/mol, female, 155 g) two weeks before the test. In the method used, about 2 weeks were required until the tumor had reached the size of 0.5-1 cm^3 desired for the test.
(§2) For the test, the animal was anesthetized (Rompun+Ketavet) and then a catheter was placed in the caudal vein for the administration of the contrast medium.
The imaging took place in an MRI experimental device of the General Electric company (field strength 2 teslas). The first image was made without contrast media with a T1 -weighted spin echo sequence (TR=400 msec, TE=20 msec, layer thickness 3 mm). […] Then, the administration of the contrast medium [gadolinium complex of 3,6-bis(carboxymethyl)-9-(10-carboxydecylcarbamoylmethyl)-3,6,9-triazaundecanedioic acid, Example 1b)] took place through the vein catheter with a dose of 0.1 mmol of Gd/kg (concentration of the solution of 0.05 mmol/ml in 0.9% NaCl, i.e. a clinically usual dose, e.g., in the case of the commercial preparation Magnevist®). […] 2 was taken 60 minutes after the administration of the contrast medium under conditions which were otherwise the same as image no.

liver = settings: p.o., 0.5 mmol of Gd/kg
Procedure: In another animal (rat, strain Lew/mol, female, 200 g), the same contrast medium was administered orally with a p.o. sample in a dose of 0.5 mmol of Gd/kg (concentration of the solution 0.033 mmol of Gd/ml, in 0.9% NaCl). The animal was anesthetized 30 minutes after the administration and examined under the same conditions as described in the first case.

[1] = test system: liver / Brown-Pearce tumor; experiment: In vivo NMR diagnosis, intravenous, liver with Brown-Pearce tumor; parameters: species or system rat; settings: i.v., 0.1 mmol of Gd/kg, 60 minutes after administration
Procedure: as §1, §2
The imaging took place in an MRI experimental device of the General Electric company (field strength 2 teslas). The first image was made without contrast media with a T1 -weighted spin echo sequence (TR=400 msec, TE=20 msec, layer thickness 3 mm). […] 2 was taken 60 minutes after the administration of the contrast medium under conditions which were otherwise the same as image no.

human serum albumin = experiment: Association with human serum albumin in aqueous solution; format: binding

| SMILES | enhancement of the stomach (stomach) | signal in the liver, 45 minutes (liver; 45 minutes after administration (image 3)) | enhancement in the liver, 180 minutes (liver; 180 minutes after administration (image 4)) | concentration of the contrast medium in liver and tumor [1] | appearance of the liver parenchyma in MRI image ([1]; 2 teslas, T1-weighted spin echo) | appearance of the tumor in MRI image ([1]; Brown-Pearce tumor in liver) | association with human serum albumin (human serum albumin) |
| --- | --- | --- | --- | --- | --- | --- | --- |
| O=C(O)CCCCCCCCCCNC(=O)CN(CCN(CCN(CC(=O)O)CC(=O)O)CC(=O)O)CC(=O)O.[Gd] [Example 1b, Gadolinium complex of 3,6-bis(carboxymethyl)-9-(10-carboxydecylcarbamoylmethyl)-3,6,9-triazaundecanedioic acid] | very strong enhancement of the stomach | a slight increase in the signal in the liver | A marked enhancement in the liver | concentrated in the liver to a great extent, but, not in the tumor | very bright | considerably darker in comparison with the surrounding liver tissue | – |
| CCCCCCC(CCCCCCCCCCC(=O)O)NC(=O)CN(CCN(CCN(CC(=O)O)CC(=O)O)CC(=O)O)CC(=O)O.[Gd] (stereo not shown) [Example 4b, Gadolinium complex of 3,6-bis(carboxymethyl)-9-(11-carboxy-1-n-hexyl-undecylcarbamoylmethyl)-3,6,9-triazaundecanedioic acid] | – | – | – | – | – | – | forms associates in aqueous solution with human serum albumin |
